According to patent US20210299059A1, “INJECTABLE PHARMACEUTICAL COMPOSITION AND PREPARATION METHOD THEREFOR” (Jiangsu Hengrui Medicine CO., LTD., priority 2018, published 2021):

Legend:
[1] = Pharmacokinetics study, subcutaneous apixaban injection (Embodiment 4); type: in vivo, humans; settings: human, plasma, sc, 2.5 mg, plasma drug concentration of apixaban, 1 mL of 2.5 mg/mL apixaban injection subcutaneously
[2] = cited from earlier work
[3] = cited from earlier work; remark: listed apart in the source

Compound: COc1ccc(-n2nc(C(N)=O)c3c2C(=O)N(c2ccc(N4CCCCC4=O)cc2)CC3)cc1 [apixaban, Apixaban]
- concentration at 0 h ([1]; Mean of three subjects): 0 ng/mL
- concentration at 0.25 h ([1]; Mean of three subjects): 6.19 ng/mL
- concentration at 0.5 h ([1]; Mean of three subjects): 14.5 ng/mL
- concentration at 1 h ([1]; Mean of three subjects): 27.1 ng/mL
- concentration at 2 h ([1]; Mean of three subjects): 40.6 ng/mL
- concentration at 3 h ([1]; Mean of three subjects): 47.3 ng/mL
- concentration at 4 h ([1]; Mean of three subjects): 51.2 ng/mL
- concentration at 5 h ([1]; Mean of three subjects): 43.4 ng/mL
- concentration at 6 h ([1]; Mean of three subjects): 41.6 ng/mL
- concentration at 8 h ([1]; Mean of three subjects): 39.3 ng/mL
- concentration at 10 h ([1]; Mean of three subjects): 32.2 ng/mL
- concentration at 16 h ([1]; Mean of three subjects): 21.2 ng/mL
- concentration at 24 h ([1]; Mean of three subjects): 13.8 ng/mL
- concentration at 0 h ([1]; subject C-01): 0 ng/mL
- concentration at 0.25 h ([1]; subject C-01): 8.08 ng/mL
- concentration at 0.5 h ([1]; subject C-01): 18.2 ng/mL
- concentration at 1 h ([1]; subject C-01): 35.8 ng/mL
- concentration at 2 h ([1]; subject C-01): 52 ng/mL
- concentration at 3 h ([1]; subject C-01): 62.1 ng/mL
- concentration at 4 h ([1]; subject C-01): 68.8 ng/mL
- concentration at 5 h ([1]; subject C-01): 52.4 ng/mL
- concentration at 6 h ([1]; subject C-01): 48.8 ng/mL
- concentration at 8 h ([1]; subject C-01): 46.7 ng/mL
- concentration at 10 h ([1]; subject C-01): 37.6 ng/mL
- concentration at 16 h ([1]; subject C-01): 22.8 ng/mL
- concentration at 24 h ([1]; subject C-01): 14.3 ng/mL
- concentration at 0 h ([1]; subject C-02): 0 ng/mL
- concentration at 0.25 h ([1]; subject C-02): 5.36 ng/mL
- concentration at 0.5 h ([1]; subject C-02): 14.3 ng/mL
- concentration at 1 h ([1]; subject C-02): 23.8 ng/mL
- concentration at 2 h ([1]; subject C-02): 37.9 ng/mL
- concentration at 3 h ([1]; subject C-02): 43.2 ng/mL
- concentration at 4 h ([1]; subject C-02): 44.8 ng/mL
- concentration at 5 h ([1]; subject C-02): 38.1 ng/mL
- concentration at 6 h ([1]; subject C-02): 40.4 ng/mL
- concentration at 8 h ([1]; subject C-02): 33.4 ng/mL
- concentration at 10 h ([1]; subject C-02): 28.9 ng/mL
- concentration at 16 h ([1]; subject C-02): 19.2 ng/mL
- concentration at 24 h ([1]; subject C-02): 11.4 ng/mL
- concentration at 0 h ([1]; subject C-03): 0 ng/mL
- concentration at 0.25 h ([1]; subject C-03): 5.13 ng/mL
- concentration at 0.5 h ([1]; subject C-03): 10.9 ng/mL
- concentration at 1 h ([1]; subject C-03): 21.7 ng/mL
- concentration at 2 h ([1]; subject C-03): 31.9 ng/mL
- concentration at 3 h ([1]; subject C-03): 36.6 ng/mL
- concentration at 4 h ([1]; subject C-03): 40 ng/mL
- concentration at 5 h ([1]; subject C-03): 39.7 ng/mL
- concentration at 6 h ([1]; subject C-03): 35.5 ng/mL
- concentration at 8 h ([1]; subject C-03): 37.6 ng/mL
- concentration at 10 h ([1]; subject C-03): 30.1 ng/mL
- concentration at 16 h ([1]; subject C-03): 21.6 ng/mL
- concentration at 24 h ([1]; subject C-03): 15.8 ng/mL
- oral bioavailability [2]: approximately 50%
- ionization ([3]; at physiological pH (1.2 to 6.8)): not ionized
- LogP [3]: 3.53
- solubility ([3]; in the physiological pH range (1.2 to 6.8)): about 0.04 mg/ml
